# Results from patent publication US5952330A, “Use of NK-1 receptor antagonists for treating mania” (Merck Sharp & Dohme Ltd., priority 1997, dated 1999).
# Tested on: cisplatin-induced emesis in ferrets
# Experiment: Ferret emesis, cisplatin-induced retches and vomits (Assay 3)
# Format: in vivo
# Conditions: Mustela putorius; p.o., cisplatin 10 mg/kg i.v. 60 minutes after oral dosing; 4 h observation; read-out: ferret emesis: ID90
# Method: ASSAY 3: Ferret Emesis Individually housed male ferrets (1.0-2.5 kg) are dosed orally by gavage with test compound. Ten minutes later they are fed with approximately 10 g of tinned cat food. At 60 minutes following oral dosing, cisplatin (10 mg/kg) is given i.v. via a jugular vein catheter inserted under a brief period of halothane anaesthesia. The catheter is then removed, the jugular vein ligated and the skin incision closed. The ferrets recover rapidly from the anaesthetic and are mobile within 10-20 minutes. The animals are observed continuously during recovery from the anaesthetic and for 4 hours following the cisplatin injection. The numbers of retches and vomits occurring during the 4 hours after cisplatin administration are recorded by trained observers.
smiles,measurement,value
"C[C@@H](O[C@H]1OCCN(Cc2n[nH]c(=O)[nH]2)[C@H]1c1ccc(F)cc1)c1cc(C(F)(F)F)cc(C(F)(F)F)c1 [2-(R)-(1-(R)-(3,5-bis(trifluoromethyl)phenyl)ethoxy)-3-(S)-(4-fluorophenyl)-4-(3-(5-oxo-1H, 4H-1,2,4-triazolo)methyl)-morpholine]",ED90,< 3 mg/kg
